{"source": "patent US7279321B2", "about": "“Methods for increasing the resistance of a host cell to aromatic carboxylic acids” (priority 2003, dated 2007)", "key": {"[1]": {"tested_on": "E. coli strain DPD2444 (yhcP::TN<Kan>)", "assay": "MIC, 2-fold dilutions, Vogel-Bonner medium with 0.4% glucose", "assay_type": "cell-based", "settings": "Escherichia coli, read-out: MIC for pHBA", "from_the_text": "The yhcP::TN<Kan> was introduced into E. coli strain MG1655 (obtained from Prof. Douglas Berg, Washington University School of Medicine, St. Louis, […].) by P1clr100 Cm mediated transduction to kanamycin resistance using phage lysates of E. coli strain DPD2443. One of the resultant kanamycin resistant transductants was named DPD2444."}, "[2]": {"tested_on": "E. coli DPD2444 (yhcP−)", "assay": "microbe, parasite or virus in culture", "assay_type": "cell-based", "description": "Additional compounds were tested for growth inhibition of E. coli MG1655 (yhcP^+) and DPD2444 (yhcP^−) in Vogel-Bonner medium with glucose as the carbon source and with 0.01% tetrazolium violet added as an indicator of viability. A series of two-fold dilutions of each chemical was made to the wells of a clear 96-well microplate in 50 μl volume. To these wells was added 50 μl of an overnight culture in Vogel Bonner medium with glucose as a carbon source of either MG1655 or DPD2444 that had been previously diluted 500-fold into fresh medium. The plates were incubated at 37° C. without shaking for 16 to 18 hours. The purple color in each well was visually scored. A score of 4+ indicated full purple color equivalent to a no chemical control well. Scores of 3+, 2+, or 1+ indicated decreasing amounts of purple color. A score of − indicated the complete absence of color. The MIC was defined as the lowest tested concentration that gave complete absence of color. The rank of difference between strains was defined as the score of pigment color for E. coli MG1655 in wells containing the concentration of a given chemical at the MIC for DPD24444. When MG1655 had no color, the score was 0. When MG 1655 was scored at 1+, the score was 1, when scored at 2+, the score was 2, etc."}, "[3]": {"tested_on": "E. coli strain DPD2463 (DPD2444 yhcP− with pDEW659 yhcP)", "assay": "pHBA zone of growth inhibition, plasmid-carrying strains (Table 9)", "assay_type": "cell-based", "from_the_text": "(§1) Plasmids pDEW668, pDEW673, pDEW675, and a control plasmid, pTrcHis2TOPO®/lacZ (Invitrogen), were moved by transformation to E. coli strain DPD2433, selecting for Ampicillin resistance, to generate strains DPD3317, DPD2455, DPD2457, and DPD3316, respectively.\n(§2) The YhcP-Left primer was designed to contain a HindIII site and the YhcP-Right primer was designed to contain an EcoRI site for directional cloning of the resultant PCR product. […] The product of the PCR reaction was digested with restriction enzymes EcoRI and HindIII. The restriction digestion also contained pKK223-3 at an approximate molar ratio of 2:1 (insert:vector). Following incubation at 37° C. for 1.5 hours, the enzymes were inactivated by incubation at 65° C. for 20 minutes. The enzymes were subsequently removed by use a Qiaquick PCR purification kit (Qiagen) according to the vendor's instructions. The purified restriction products were ligated using T4 DNA ligase at 16° C. overnight. Following ligation, PstI and SmaI digestions were used to linearize the vector without insert DNA. The DNA from this selection digestion was used for transformation of E. coli strain JM105 (Amersham Pharmacia Biotech Inc., Piscataway, N.J.) using selection for Ampicillin resistance. Plasmid DNA from individual transformants was digested with EcoRI and HindIII. […] This plasmid and others were placed in various host strains by transformation and selection for Ampicillin resistance."}, "[4]": {"tested_on": "E. coli strain DPD2459 (MG1655 + with pKK223-3 control plasmid)", "assay": "pHBA zone of growth inhibition, plasmid-carrying strains (Table 9)", "assay_type": "cell-based", "from_the_text": "as §1, §2"}, "[5]": {"tested_on": "E. coli strain DPD2466 (DPD2433 yhcS− with pKK223-3 control plasmid)", "assay": "pHBA zone of growth inhibition, plasmid-carrying strains (Table 9)", "assay_type": "cell-based", "from_the_text": "as §1, §2"}, "[6]": {"tested_on": "E. coli strain DPD2465 (DPD2444 yhcP− with pDEW675 yhcRQ)", "assay": "pHBA zone of growth inhibition, plasmid-carrying strains (Table 9)", "assay_type": "cell-based", "from_the_text": "as §1, §2"}, "[7]": {"tested_on": "E. coli strain DPD2464 (DPD2444 yhcP− with pDEW673 yhcQP)", "assay": "pHBA zone of growth inhibition, plasmid-carrying strains (Table 9)", "assay_type": "cell-based", "from_the_text": "as §1, §2"}, "[8]": {"tested_on": "E. coli strain DPD2462 (DPD2444 yhcP− with pKK223-3 control plasmid)", "assay": "pHBA zone of growth inhibition, plasmid-carrying strains (Table 9)", "assay_type": "cell-based", "from_the_text": "as §1, §2"}, "[9]": {"tested_on": "E. coli strain DPD2467 (DPD2433 yhcS− with pDEW659 yhcP)", "assay": "pHBA zone of growth inhibition, plasmid-carrying strains (Table 9)", "assay_type": "cell-based", "from_the_text": "as §1, §2"}, "[10]": {"tested_on": "yhcRQP-luxCDABE gene fusion in strain DPD2437 (yhcS−)", "assay": "Bioluminescence response of yhcRQP-luxCDABE gene fusion", "assay_type": "cell-based, E. coli", "settings": "LB pH 7.0, sodium salt", "from_the_text": "(§3) Plasmid pDEW655 was constructed by ligating an E. coli chromosomal segment between nucleotides 3385829 and 3386761 according to the E. coli genomic sequence, which contains the promoter region of the putative yhcRQP operon and the entire yhcR gene and the 5′ end of the yhcQ gene, to the luxCDABE genes parental plasmid, pDEW201 (Gonye et al. U.S. Patent Application Publication 20030219736). Thus, this gene fusion will report on expression of the yhcQ gene and accordingly any other genes cotranscribed with it. Plasmid pDEW655 was moved to E. coli strains MG1655 and DPD2433 by transformation, selecting for Ampicillin resistance to generate strains DPD2436 and DPD2437, respectively. The bioluminescent response of these two strains to pHBA was tested."}, "[11]": {"tested_on": "yhcRQP-luxCDABE gene fusion in strain DPD2436 (yhcS+)", "assay": "Bioluminescence response of yhcRQP-luxCDABE gene fusion", "assay_type": "cell-based, E. coli", "settings": "LB pH 7.0, sodium salt", "from_the_text": "as §3"}, "[12]": {"tested_on": "E. coli strain DPD2443 (yhcP::TN<Kan> of DH5αE)", "assay": "zone of growth inhibition test on LB agar plates", "assay_type": "cell-based", "settings": "disk with 90 μmol pHBA sodium salt, 24 hr at 37° C.", "description": "(§4) A zone of growth inhibition test was done using 0.1 ml of overnight cultures in LB medium plated onto LB agar plates using 2.5 ml LB soft agar."}, "[13]": {"tested_on": "E. coli strain DH5αE (parental)", "assay": "zone of growth inhibition test on LB agar plates", "assay_type": "cell-based", "settings": "disk with 90 μmol pHBA sodium salt, 24 hr at 37° C.", "description": "as §4"}}, "data": [{"smiles": "O=C(O)c1ccc(O)cc1", "note": "[pHBA, para-hydroxybenzoic acid]", "values": [{"measurement": "MIC", "setting": "[1]", "result": 25, "unit": "mM"}, {"measurement": "MIC", "setting": "[2]; Escherichia coli, read-out: MIC, DPD2444 (yhcP−)", "result": 12.5, "unit": "mM"}, {"measurement": "defined as substrate of the YhcP efflux pump by this genetic test", "setting": "[2]; MIC difference at least 2-fold and rank at least 2", "result": "substrates of the YhcP efflux pump"}, {"measurement": "clarity of pHBA zone of growth inhibition", "setting": "[3]", "result": "turbid"}, {"measurement": "pHBA zone of growth inhibition, mm diameter", "setting": "[3]; tested as for Table 8", "result": 10.5, "unit": "mm"}, {"measurement": "clarity of pHBA zone of growth inhibition", "setting": "[4]", "result": "turbid"}, {"measurement": "pHBA zone of growth inhibition, mm diameter", "setting": "[4]; tested as for Table 8", "result": 10.0, "unit": "mm"}, {"measurement": "clarity of pHBA zone of growth inhibition", "setting": "[5]", "result": "clear"}, {"measurement": "pHBA zone of growth inhibition, mm diameter", "setting": "[5]; tested as for Table 8", "result": 19.2, "unit": "mm"}, {"measurement": "clarity of pHBA zone of growth inhibition", "setting": "[6]", "result": "clear"}, {"measurement": "pHBA zone of growth inhibition, mm diameter", "setting": "[6]; tested as for Table 8", "result": 21.8, "unit": "mm"}, {"measurement": "clarity of pHBA zone of growth inhibition", "setting": "[7]", "result": "turbid"}, {"measurement": "pHBA zone of growth inhibition, mm diameter", "setting": "[7]; tested as for Table 8", "result": 9.8, "unit": "mm"}, {"measurement": "clarity of pHBA zone of growth inhibition", "setting": "[8]", "result": "clear"}, {"measurement": "pHBA zone of growth inhibition, mm diameter", "setting": "[8]; tested as for Table 8", "result": 22.8, "unit": "mm"}, {"measurement": "clarity of pHBA zone of growth inhibition", "setting": "[9]", "result": "clear"}, {"measurement": "pHBA zone of growth inhibition, mm diameter", "setting": "[9]; tested as for Table 8", "result": 18.8, "unit": "mm"}, {"measurement": "RLU", "setting": "[10]; [pHBA] 1.6, thirty minutes", "result": 1.02, "unit": "RLU"}, {"measurement": "RLU", "setting": "[10]; [pHBA] 3.1, thirty minutes", "result": 1.16, "unit": "RLU"}, {"measurement": "RLU", "setting": "[10]; [pHBA] 6.2, thirty minutes", "result": 1.42, "unit": "RLU"}, {"measurement": "RLU", "setting": "[10]; [pHBA] 12.5, thirty minutes", "result": 1.82, "unit": "RLU"}, {"measurement": "RLU", "setting": "[10]; [pHBA] 25, thirty minutes", "result": 1.59, "unit": "RLU"}, {"measurement": "RLU", "setting": "[10]; [pHBA] 50, thirty minutes", "result": 0.614, "unit": "RLU"}, {"measurement": "RLU", "setting": "[10]; [pHBA] 100, thirty minutes", "result": 0.045, "unit": "RLU"}, {"measurement": "RLU", "setting": "[11]; [pHBA] 1.6, thirty minutes", "result": 6.72, "unit": "RLU"}, {"measurement": "RLU", "setting": "[11]; [pHBA] 3.1, thirty minutes", "result": 10.2, "unit": "RLU"}, {"measurement": "RLU", "setting": "[11]; [pHBA] 6.2, thirty minutes", "result": 16.2, "unit": "RLU"}, {"measurement": "RLU", "setting": "[11]; [pHBA] 12.5, thirty minutes", "result": 30.8, "unit": "RLU"}, {"measurement": "RLU", "setting": "[11]; [pHBA] 25, thirty minutes", "result": 66.6, "unit": "RLU"}, {"measurement": "RLU", "setting": "[11]; [pHBA] 50, thirty minutes", "result": 91.7, "unit": "RLU"}, {"measurement": "RLU", "setting": "[11]; [pHBA] 100, thirty minutes", "result": 0.437, "unit": "RLU"}, {"measurement": "pHBA zone of growth inhibition, mm diameter", "setting": "[12]", "result": 13.0, "unit": "mm"}, {"measurement": "pHBA zone of growth inhibition, mm diameter", "setting": "[13]", "result": 9.0, "unit": "mm"}]}]}
